Among the data in PubChem BioAssay AID256 (DTP/NCI, 2004) are T/C values, retold here.

The experiment relates to CD2F1 mice, L1210 leukemia ip, survival T/C. Kind of experiment: NCI In Vivo Anticancer Drug Screen. Data for tumor model L1210 Leukemia (intraperitoneal) in CD2F1 (CDF1) mice. The following applies: endpoint: mean survival time, higher = longer survival. The method in brief: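 Vehicle-treated tumor-bearing mice served as controls (C) for compound-treated mice (T). Reported figure is T divided by C.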

The mark [1] stands for this setting: dose: 50.0 mg/kg/injection, schedule: Q01DX009 (ip), vehicle: saline with Tween-80.
[2] abbreviates: dose: 50.0 mg/kg/injection, schedule: Q01DX009 (ip), vehicle: saline.
Where [3] appears, read: dose: 100.0 mg/kg/injection, schedule: Q01DX009 (ip), vehicle: saline.
Where [4] appears, read: dose: 200.0 mg/kg/injection, schedule: Q01DX009 (ip), vehicle: saline.
Where [5] appears, read: dose: 100.0 mg/kg/injection, schedule: Q04DX003 (ip), vehicle: saline with Tween-80.
Setting [6] is: dose: 200.0 mg/kg/injection, schedule: Q04DX003 (ip), vehicle: saline with Tween-80.
[7] abbreviates: dose: 400.0 mg/kg/injection, schedule: Q04DX003 (ip), vehicle: saline with Tween-80.
The mark [8] stands for this setting: dose: 100.0 mg/kg/injection, schedule: Q01DX009 (ip), vehicle: saline with Tween-80.
Setting [9] is: dose: 75.0 mg/kg/injection, schedule: Q01DX001 (ip), vehicle: saline.

SMILES strings stand for the structures. “And” between values parts separate entries of the source, which are not always exact repeats. Equal values may be shown once. Inconclusive results and toxic doses are left out.

As for `O=C(Nc1cccc2ccccc12)OCCCBr`, the T/C by setting is: (dose: 3.13 mg/kg/injection, schedule: Q01DX009 (ip), vehicle: saline with Tween-80) 97 % of control; (dose: 6.25 mg/kg/injection, schedule: Q01DX009 (ip), vehicle: saline with Tween-80) 103 % of control; (dose: 12.5 mg/kg/injection, schedule: Q01DX009 (ip), vehicle: saline with Tween-80) 94 % of control and 101 % of control; under setting [1], 86 % of control.

As for `CCOC(=O)CCC(NC(=O)C(CSC(c1ccccc1)(c1ccccc1)c1ccccc1)NC(c1ccccc1)(c1ccccc1)c1ccccc1)C(=O)OCC` (centres undefined), the T/C reads like this: (dose: 25.0 mg/kg/injection, schedule: Q01DX009 (ip), vehicle: saline) 93 % of control; under setting [2], 100 % of control; under setting [3], 96 % of control; under setting [4], 96 % of control; (dose: 400.0 mg/kg/injection, schedule: Q01DX009 (ip), vehicle: saline) 96 % of control.

As for `Nc1nc(N)c(N=Nc2ccc(SCC(=O)O)cc2)c(N)n1`, the T/C was 102 % of control under setting [5], 104 % of control under setting [6] and 95 % of control under setting [7].

As for `CNC(C(=O)O)c1ccccc1` (centres undefined), the T/C reads like this: (dose: 25.0 mg/kg/injection, schedule: Q01DX009 (ip), vehicle: saline with Tween-80) 101 % of control; under setting [1], 100 % of control; under setting [8], 92 % of control and 94 % of control; under setting [5], 92 % of control; under setting [6], 101 % of control; under setting [7], 89 % of control.

For the compound `[Cl][Mo]([Cl])([Cl])[Cl].[Cl][Mo]([Cl])([Cl])[Cl]`, the T/C runs as follows: (dose: 100.0 mg/kg/injection, schedule: Q04DX002 (ip), vehicle: saline) 112 % of control; (dose: 200.0 mg/kg/injection, schedule: Q04DX002 (ip), vehicle: saline) 87 % of control; (dose: 400.0 mg/kg/injection, schedule: Q04DX002 (ip), vehicle: saline) 108 % of control.

As to `CC(C)(C)C(=O)CC(=O)C(C)(C)C.CC(C)(C)C(=O)CC(=O)C(C)(C)C.CC(C)(C)C(=O)CC(=O)C(C)(C)C.[Nd]`, the T/C is 101 % of control under setting [5], 95 % of control under setting [6] and 95 % of control under setting [7].

For the compound `CC(C)(C)N(Cc1ccccc1)Cc1ccccc1`, the T/C is, setting by setting: under setting [8], 102 % of control; (dose: 200.0 mg/kg/injection, schedule: Q01DX009 (ip), vehicle: saline with Tween-80) 98 % of control; (dose: 400.0 mg/kg/injection, schedule: Q01DX009 (ip), vehicle: saline with Tween-80) 101 % of control.

As to `C1=NC(c2ccccn2)=NNC(c2ccccn2)=C1c1ccccc1`, the T/C reads like this: (dose: 12.5 mg/kg/injection, schedule: Q01DX009 (ip), vehicle: Klucel (hydroxypropylcellulose) (HPC)) 97 % of control; (dose: 25.0 mg/kg/injection, schedule: Q01DX009 (ip), vehicle: Klucel (hydroxypropylcellulose) (HPC)) 100 % of control; (dose: 50.0 mg/kg/injection, schedule: Q01DX009 (ip), vehicle: Klucel (hydroxypropylcellulose) (HPC)) 95 % of control; (dose: 100.0 mg/kg/injection, schedule: Q01DX009 (ip), vehicle: Klucel (hydroxypropylcellulose) (HPC)) 100 % of control; (dose: 200.0 mg/kg/injection, schedule: Q01DX009 (ip), vehicle: Klucel (hydroxypropylcellulose) (HPC)) 97 % of control.

In the case of `Nc1nc(N)c2cc(CNc3ccc(C(=O)NC(CC(=O)O)C(=O)O)c(Cl)c3)ccc2n1` (centres undefined), the T/C (dose: 5.0 mg/kg/injection, schedule: Q01DX001 (ip), vehicle: saline) is 160 % of control.

Take `C#CCCOC(=O)Nc1ccccc1`: the T/C (dose: 100.0 mg/kg/injection, schedule: Q04DX003 (ip), vehicle: Klucel (hydroxypropylcellulose) (HPC)) was 97 % of control; the T/C (dose: 200.0 mg/kg/injection, schedule: Q04DX003 (ip), vehicle: Klucel (hydroxypropylcellulose) (HPC)) was 100 % of control; the T/C (dose: 400.0 mg/kg/injection, schedule: Q04DX003 (ip), vehicle: Klucel (hydroxypropylcellulose) (HPC)) was 110 % of control.

On to `CC(C)OC(=O)C#CC(=O)O`, for which the T/C (dose: 25.0 mg/kg/injection, schedule: Q01DX001 (ip), vehicle: saline) was 97 % of control and the T/C (dose: 50.0 mg/kg/injection, schedule: Q01DX001 (ip), vehicle: saline) is 97 % of control.

Turning to `CC(=O)C(C)(c1ccccc1)N(Cc1ccccc1)C(=O)c1ccccc1` (centres undefined), the T/C was 96 % of control (dose: 100.0 mg/kg/injection, schedule: Q01DX001 (ip), vehicle: saline); 98 % of control (dose: 200.0 mg/kg/injection, schedule: Q01DX001 (ip), vehicle: saline); 96 % of control (dose: 400.0 mg/kg/injection, schedule: Q01DX001 (ip), vehicle: saline).

For `NOCc1csc(NC(=O)Nc2ccccc2)n1`, the T/C runs as follows: (dose: 18.8 mg/kg/injection, schedule: Q01DX001 (ip), vehicle: saline with Tween-80) 110 % of control; (dose: 18.8 mg/kg/injection, schedule: Q04DX003 (ip), vehicle: saline with Tween-80) 98 % of control; (dose: 37.5 mg/kg/injection, schedule: Q01DX001 (ip), vehicle: saline with Tween-80) 112 % of control; (dose: 37.5 mg/kg/injection, schedule: Q04DX003 (ip), vehicle: saline with Tween-80) 98 % of control; (dose: 75.0 mg/kg/injection, schedule: Q01DX001 (ip), vehicle: saline with Tween-80) 96 % of control; (dose: 75.0 mg/kg/injection, schedule: Q04DX003 (ip), vehicle: saline with Tween-80) 98 % of control.

Take `CCOC(=O)C(C)C(=O)O` (centres undefined): the T/C by setting is: under setting [2], 97 % of control; under setting [3], 98 % of control; (dose: 100.0 mg/kg/injection, schedule: Q04DX003 (ip), vehicle: saline) 98 % of control; under setting [4], 98 % of control; (dose: 200.0 mg/kg/injection, schedule: Q04DX003 (ip), vehicle: saline) 96 % of control.

For `Cc1cccc(=O)n1Cc1ccccc1`, the T/C was 95 % of control under setting [5], 95 % of control under setting [6] and 95 % of control under setting [7].

In the case of `CCC(C(=O)OCCNC1CCCCC1)c1ccccc1` (centres undefined), the T/C under setting [9] is 110 % of control.

With `CCCCN(CCCC)CC(C)(O)c1cc(-c2ccc(Cl)cc2)nc2c(C)cc(C)cc12` (centres undefined), the T/C was 87 % of control under setting [5] and 89 % of control under setting [6].

As to `N#CCCCCCCn1cnc2c(N)ncnc21`, the T/C reads like this: (dose: 50.0 mg/kg/injection, schedule: Q04DX002 (ip), vehicle: saline with Tween-80) 102 % of control; (dose: 100.0 mg/kg/injection, schedule: Q01DX001 (ip), vehicle: saline with Tween-80) 97 % of control; (dose: 100.0 mg/kg/injection, schedule: Q04DX002 (ip), vehicle: saline with Tween-80) 105 % of control; (dose: 200.0 mg/kg/injection, schedule: Q01DX001 (ip), vehicle: saline with Tween-80) 97 % of control; (dose: 200.0 mg/kg/injection, schedule: Q04DX002 (ip), vehicle: saline with Tween-80) 90 % of control.

Regarding `Nc1cccc(/C=C/c2nc(N)nc(N)c2-c2ccc(Cl)c(Cl)c2)c1`, the T/C was 91 % of control under setting [9]; 92 % of control (dose: 150.0 mg/kg/injection, schedule: Q01DX001 (ip), vehicle: saline); 91 % of control (dose: 300.0 mg/kg/injection, schedule: Q01DX001 (ip), vehicle: saline).

Consider `COC12CC3C4CCC5CC(O)CCC5(C)C4CCC3(C)C1C(C)C1(CCC(C)CO1)O2` (centres undefined), for which the T/C was 100 % of control under setting [5], 96 % of control under setting [6] and 92 % of control under setting [7].
